Laboratory results published in patent US8580794B2 (AbbVie Inc., priority 2009, dated 2013).

Molecular target: GST-Bc1-2 (Homo sapiens, UniProt P10415)
Assay: Time Resolved-Fluorescence Resonance Energy Transfer (TR-FRET) Bcl-2 binding assay with F-Bak peptide probe
Details: GST-Bcl-2 1 nM, F-Bak probe 100 nM, Tb-anti-GST 1 nM; '<' = below limit of detection; read-out: TR-FRET Bcl-2 Binding Ki
Experimental: The samples are then mixed on a shaker for 1 minute and incubated for an additional 3 hours at room temperature. For each assay, the probe/antibody and protein/probe/antibody were included on each assay plate as negative and positive controls, respectively.
The samples were then mixed on a shaker for 1 minute and incubated for an additional 3 hours at room temperature. For each assay, the probe/antibody and protein/probe/antibody were included on each assay plate as negative and positive controls, respectively.

Sequence of GST-Bc1-2 (P10415 whole entry): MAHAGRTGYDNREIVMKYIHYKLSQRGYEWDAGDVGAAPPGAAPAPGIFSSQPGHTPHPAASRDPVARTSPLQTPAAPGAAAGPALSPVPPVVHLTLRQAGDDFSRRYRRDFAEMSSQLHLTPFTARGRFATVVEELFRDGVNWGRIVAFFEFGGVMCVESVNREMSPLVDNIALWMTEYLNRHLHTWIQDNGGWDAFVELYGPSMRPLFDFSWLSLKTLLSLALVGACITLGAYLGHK

Question: For COCCN1CCCC(CNc2ccc(S(=O)(=O)NC(=O)c3ccc(N4CCN(CC5=C(c6ccc(Cl)cc6)CC(C)(C)CC5)CC4)cc3Oc3cnc4[nH]ccc4c3)cc2[N+](=O)[O-])C1 (stereo not drawn) [Example 228, 4-(4-{[2-(4-chlorophenyl)-4,4-dimethylcyclohex-1-en-1-yl]methyl}piperazin-1-yl)-N-{[4-({[1-(2-methoxyethyl)piperidin-3-yl]methyl}amino)-3-nitrophenyl]sulfonyl}-2-(1H-pyrrolo[2,3-b]pyridin-5-yloxy)benzamide], which Ki is on record?
Answer: 26.8 nM

Question: CC1(C)CCC(CN2CCN(c3ccc(C(=O)NS(=O)(=O)c4ccc(NCC5CCCN(CC#N)C5)c([N+](=O)[O-])c4)c(Oc4cnc5[nH]ccc5c4)c3)CC2)=C(c2ccc(Cl)cc2)C1 (stereo not drawn) [Example 229, 4-(4-{[2-(4-chlorophenyl)-4,4-dimethylcyclohex-1-en-1-yl]methyl}piperazin-1-yl)-N-{[4-({[1-(cyanomethyl)piperidin-3-yl]methyl}amino)-3-nitrophenyl]sulfonyl}-2-(1H-pyrrolo[2,3-b]pyridin-5-yloxy)benzamide] was tested. Which Ki did it give?
Answer: 2.11 nM

Question: With CN1CCC(F)(COc2ccc(S(=O)(=O)NC(=O)c3ccc(N4CCN(CC5=C(c6ccc(Cl)cc6)CC(C)(C)CC5)CC4)cc3Oc3cnc4[nH]ccc4c3)cc2S(=O)(=O)C(F)(F)F)CC1 [Example 230, 4-(4-{[2-(4-chlorophenyl)-4,4-dimethylcyclohex-1-en-1-yl]methyl}piperazin-1-yl)-N-({4-[(4-fluoro-1-methylpiperidin-4-yl)methoxy]-3-[(trifluoromethyl)sulfonyl]phenyl}sulfonyl)-2-(1H-pyrrolo[2,3-b]pyridin-5-yloxy)benzamide] as the compound, how does the Ki read?
Answer: 0.031 nM

Question: Which Ki does the source give for CC1(C)CCC(CN2CCN(c3ccc(C(=O)NS(=O)(=O)c4ccc(NN5CCN(C(=O)OC(C)(C)C)CC5)c([N+](=O)[O-])c4)c(Oc4cnc5[nH]ccc5c4)c3)CC2)=C(c2ccc(Cl)cc2)C1 [Example 232, tert-butyl 4-[(4-{[4-(4-{[2-(4-chlorophenyl)-4,4-dimethylcyclohex-1-en-1-yl]methyl}piperazin-1-yl)-2-(1H-pyrrolo[2,3-b]pyridin-5-yloxy)benzoyl]sulfamoyl}-2-nitrophenyl)amino]piperazine-1-carboxylate] here?
Answer: 1.63 nM

Question: How did the Ki turn out when CC1(C)CCC(CN2CCN(c3ccc(C(=O)NS(=O)(=O)c4ccc(NCC5CCOCC5)c(S(F)(F)(F)(F)F)c4)c(Oc4cnc5[nH]ccc5c4)c3)CC2)=C(c2ccc(Cl)cc2)C1 [Example 233, 4-(4-{[2-(4-chlorophenyl)-4,4-dimethylcyclohex-1-en-1-yl]methyl}piperazin-1-yl)-N-({3-(pentafluoro-lambda˜6˜-sulfanyl)-4-[(tetrahydro-2H-pyran-4-ylmethyl)amino]phenyl}sulfonyl)-2-(1H-pyrrolo[2,3-b]pyridin-5-yloxy)benzamide] was run?
Answer: 1.65 nM

Question: How did the Ki turn out when COC1(COc2ccc(S(=O)(=O)NC(=O)c3ccc(N4CCN(CC5=C(c6ccc(Cl)cc6)CC(C)(C)CC5)CC4)cc3Oc3cnc4[nH]ccc4c3)cc2[N+](=O)[O-])CCOCC1 [Example 234, 4-(4-{[2-(4-chlorophenyl)-4,4-dimethylcyclohex-1-en-1-yl]methyl}piperazin-1-yl)-N-({4-[(4-methoxytetrahydro-2H-pyran-4-yl)methoxy]-3-nitrophenyl}sulfonyl)-2-(1H-pyrrolo[2,3-b]pyridin-5-yloxy)benzamide] was run?
Answer: 0.115 nM

Question: With CC1(C)CCC(CN2CCN(c3ccc(C(=O)NS(=O)(=O)c4ccc(O[C@@H]5CCN(C(CF)CF)C5)c([N+](=O)[O-])c4)c(Oc4cnc5[nH]ccc5c4)c3)CC2)=C(c2ccc(Cl)cc2)C1 [Example 235, 4-(4-{[2-(4-chlorophenyl)-4,4-dimethylcyclohex-1-en-1-yl]methyl}piperazin-1-yl)-N-[(4-{[(3R)-1-(1,3-difluoropropan-2-yl)pyrrolidin-3-yl]oxy}-3-nitrophenyl)sulfonyl]-2-(1H-pyrrolo[2,3-b]pyridin-5-yloxy)benzamide] as the compound, how does the Ki read?
Answer: 0.023 nM

Question: CC1(C)CCC(CN2CCN(c3ccc(C(=O)NS(=O)(=O)c4ccc(NN5CCN(C6COC6)CC5)c([N+](=O)[O-])c4)c(Oc4cnc5[nH]ccc5c4)c3)CC2)=C(c2ccc(Cl)cc2)C1 [Example 236, 4-(4-{[2-(4-chlorophenyl)-4,4-dimethylcyclohex-1-en-1-yl]methyl}piperazin-1-yl)-N-[(3-nitro-4-{[4-(oxetan-3-yl)piperazin-1-yl]amino}phenyl)sulfonyl]-2-(1H-pyrrolo[2,3-b]pyridin-5-yloxy)benzamide] was tested. Which Ki did it give?
Answer: 0.033 nM

Question: For CC1(C)CCC(CN2CCN(c3ccc(C(=O)NS(=O)(=O)c4ccc(NN5CCN(C6CCOCC6)CC5)c([N+](=O)[O-])c4)c(Oc4cnc5[nH]ccc5c4)c3)CC2)=C(c2ccc(Cl)cc2)C1 [Example 237, 4-(4-{[2-(4-chlorophenyl)-4,4-dimethylcyclohex-1-en-1-yl]methyl}piperazin-1-yl)-N-[(3-nitro-4-{[4-(tetrahydro-2H-pyran-4-yl)piperazin-1-yl]amino}phenyl)sulfonyl]-2-(1H-pyrrolo[2,3-b]pyridin-5-yloxy)benzamide], which Ki is on record?
Answer: 0.024 nM

Question: For CC1(C)CCC(CN2CCN(c3ccc(C(=O)NS(=O)(=O)c4ccc(N[C@@H]5CCOC5)c([N+](=O)[O-])c4)c(Oc4cnc5[nH]ccc5c4)c3)CC2)=C(c2ccc(Cl)cc2)C1 [Example 238, 4-(4-{[2-(4-chlorophenyl)-4,4-dimethylcyclohex-1-en-1-yl]methyl}piperazin-1-yl)-N-({3-nitro-4-[(3R)-tetrahydrofuran-3-ylamino]phenyl}sulfonyl)-2-(1H-pyrrolo[2,3-b]pyridin-5-yloxy)benzamide], which Ki is on record?
Answer: < 0.01 nM

Question: For CC1(C)CCC(CN2CCN(c3ccc(C(=O)NS(=O)(=O)c4ccc(NCC5CCC(F)(F)CC5)c([N+](=O)[O-])c4)c(Oc4cnc5[nH]ccc5c4)c3)CC2)=C(c2ccc(Cl)cc2)C1 [Example 239, 4-(4-{[2-(4-chlorophenyl)-4,4-dimethylcyclohex-1-en-1-yl]methyl}piperazin-1-yl)-N-[(4-{[(4,4-difluorocyclohexyl)methyl]amino}-3-nitrophenyl)sulfonyl]-2-(1H-pyrrolo[2,3-b]pyridin-5-yloxy)benzamide], which Ki is on record?
Answer: 0.026 nM

Question: How did the Ki turn out when CC1(C)CCC(CN2CCN(c3ccc(C(=O)NS(=O)(=O)c4ccc(NC5CCN(C(C)(C)C)CC5)c(S(=O)(=O)C(F)(F)F)c4)c(Oc4cnc5[nH]ccc5c4)c3)CC2)=C(c2ccc(Cl)cc2)C1 [Example 240, N-({4-[(1-tert-butylpiperidin-4-yl)amino]-3-[(trifluoromethyl)sulfonyl]phenyl}sulfonyl)-4-(4-{[2-(4-chlorophenyl)-4,4-dimethylcyclohex-1-en-1-yl]methyl}piperazin-1-yl)-2-(1H-pyrrolo[2,3-b]pyridin-5-yloxy)benzamide] was run?
Answer: < 0.01 nM

Question: Which Ki does the source give for CC1(C)CCC(CN2CCN(c3ccc(C(=O)NS(=O)(=O)c4ccc(NCC5CN(C6COC6)CCO5)c(S(=O)(=O)C(F)(F)F)c4)c(Oc4cnc5[nH]ccc5c4)c3)CC2)=C(c2ccc(Cl)cc2)C1 (stereo not drawn) [Example 241, 4-(4-{[2-(4-chlorophenyl)-4,4-dimethylcyclohex-1-en-1-yl]methyl}piperazin-1-yl)-N-({4-({[4-(oxetan-3-yl)morpholin-2-yl]methyl}amino)-3-[(trifluoromethyl)sulfonyl]phenyl}sulfonyl)-2-(1H-pyrrolo[2,3-b]pyridin-5-yloxy)benzamide] here?
Answer: < 0.01 nM

Question: With CC1(C)CCC(CN2CCN(c3ccc(C(=O)NS(=O)(=O)c4cnc(NCC5(F)CCOCC5)c(Cl)c4)c(Oc4cnc5[nH]ccc5c4)c3)CC2)=C(c2ccc(Cl)cc2)C1 [Example 242, N-[(5-chloro-6-{[(4-fluorotetrahydro-2H-pyran-4-yl)methyl]amino}pyridin-3-yl)sulfonyl]-4-(4-{[2-(4-chlorophenyl)-4,4-dimethylcyclohex-1-en-1-yl]methyl}piperazin-1-yl)-2-(1H-pyrrolo[2,3-b]pyridin-5-yloxy)benzamide] as the compound, how does the Ki read?
Answer: 0.057 nM

Question: Which Ki does the source give for CC1(C)CCC(CN2CCN(c3ccc(C(=O)NS(=O)(=O)c4cnc(NC5CCN(C6CC6)CC5)c(Cl)c4)c(Oc4cnc5[nH]ccc5c4)c3)CC2)=C(c2ccc(Cl)cc2)C1 [Example 243, N-({5-chloro-6-[(1-cyclopropylpiperidin-4-yl)amino]pyridin-3-yl}sulfonyl)-4-(4-{[2-(4-chlorophenyl)-4,4-dimethylcyclohex-1-en-1-yl]methyl}piperazin-1-yl)-2-(1H-pyrrolo[2,3-b]pyridin-5-yloxy)benzamide] here?
Answer: 0.546 nM

Question: For CC1(C)CCC(CN2CCN(c3ccc(C(=O)NS(=O)(=O)c4cnc(OC[C@@H]5CN(CC#N)CCO5)c(Cl)c4)c(Oc4cnc5[nH]ccc5c4)c3)CC2)=C(c2ccc(Cl)cc2)C1 [Example 244, N-[(5-chloro-6-{[(2S)-4-(cyanomethyl)morpholin-2-yl]methoxy}pyridin-3-yl)sulfonyl]-4-(4-{[2-(4-chlorophenyl)-4,4-dimethylcyclohex-1-en-1-yl]methyl}piperazin-1-yl)-2-(1H-pyrrolo[2,3-b]pyridin-5-yloxy)benzamide], which Ki is on record?
Answer: 0.281 nM

Question: Which Ki does the source give for CN(C)CC(=O)N1CCO[C@H](COc2ncc(S(=O)(=O)NC(=O)c3ccc(N4CCN(CC5=C(c6ccc(Cl)cc6)CC(C)(C)CC5)CC4)cc3Oc3cnc4[nH]ccc4c3)cc2Cl)C1 [Example 245, N-[(5-chloro-6-{[(2S)-4-(N,N-dimethylglycyl)morpholin-2-yl]methoxy}pyridin-3-yl)sulfonyl]-4-(4-{[2-(4-chlorophenyl)-4,4-dimethylcyclohex-1-en-1-yl]methyl}piperazin-1-yl)-2-(1H-pyrrolo[2,3-b]pyridin-5-yloxy)benzamide] here?
Answer: 0.015 nM

Question: CC1(C)CCC(CN2CCN(c3ccc(C(=O)NS(=O)(=O)c4cnc(OC[C@H]5CN(CC#N)CCO5)c(Cl)c4)c(Oc4cnc5[nH]ccc5c4)c3)CC2)=C(c2ccc(Cl)cc2)C1 [Example 246, N-[(5-chloro-6-{[(2R)-4-(cyanomethyl)morpholin-2-yl]methoxy}pyridin-3-yl)sulfonyl]-4-(4-{[2-(4-chlorophenyl)-4,4-dimethylcyclohex-1-en-1-yl]methyl}piperazin-1-yl)-2-(1H-pyrrolo[2,3-b]pyridin-5-yloxy)benzamide] was tested. Which Ki did it give?
Answer: 0.144 nM
